Key:
[1] = tested on: double-stranded oligonucleotides corresponding to base pairs of an hTGF-β1 promoter; assay: Gel shift assay of Py-Im polyamide-oligonucleotide complexes; format: binding, human; conditions: 11-base double-stranded DNA containing the target sequence, compared with lanes with DS only, FIG. 3
Procedure: Oligonucleotides were synthesized and annealed, and thereby 12 types of double-stranded oligonucleotides corresponding to base pairs of an hTGF-β1 promoter were prepared. A double-strand DNA was labeled with [γ-^32P]-ATP by T4 polynucleotide kinase. The labeled double-stranded DNA was then incubated for 15 minutes at 37° C. with a polyamide or a mismatch polyamide in a binding buffer solution (40 mM Tris, pH 7.9, 250 mM NaCl, 25 mM EDTA, 25 mM DTT, 100 mM KCl). The obtained complexes were separated by electrophoresis on 20% polyacrylamide gels and visualized by autoradiography.
The binding to target sequences of GB1105 and GBP1106 was examined by gel shift assay. Sense and antisense oligonucleotide having 11 bases containing each target sequence of Py-Im polyamide were prepared, annealed to prepare a double-stranded DNA to the target site, and incubated with each Py-Im polyamide. The obtained products were electrophoresed with polyacrylamide gel and the binding between Py-Im and the target sequence was examined.

TGF-β1 messenger RNA = assay: Inhibition of expression of TGF-β1 messenger RNA in PMA-stimulated human mesangium cells (RT-PCR); format: cell-based; conditions: 12 hours serum-free; for inhibition of expression of TGFβ1 gene: 1×10^−6 M polyamide, 1×10^−6 M PMA stimulation, corrected with 18S
Procedure: (6) Reverse Transcription-Polymerase Chain Reaction (RT-PCR) Assay for RNA Extraction and Growth Factor mRNA
The cultured cells were washed with PBS, dissolved in 1,000 μL of Trizol (Invitrogen), mixed with 100 μL of chloroform, and centrifuged, and an upper aqueous phase thereof was mixed with an equal volume of isopropanol to precipitate RNA. The resulting RNA pellet was washed twice with 500 μL of 75% ethanol, dried, and dissolved in 10 μL of TE buffer solution. The RNA sample was denatured for 15 minutes at 65° C., and treated at room temperature for 45 minutes with 0.5 U of DNase (Gibco) in 0.5 ml of DNase buffer solution (20 mM Tris-HCl pH 8.3, 50 mM KCl, 2.5 mM MgCl2. The DNase was inactivated by adding 0.5 mL of 0.5 M EDTA and heating at 98° C. for 10 minutes.
An equal volume of RNA (1 μg/20 μL) was reverse-transcribed into single-stranded cDNA by 2.5 U/20 μL of avian myeloblastoma virus reverse transcriptase (Takara Biochemicals, Osaka, Japan) in 10 mM Tris-HCl (pH 8.3), 5 mM MgCl2, 50 mM KCl, 1 mM deoxy-NTPs, and 2.5 μM random hexamer. Then, 2 μL of the diluted cDNA product was mixed with 10 mM Tris-HCl (pH 8.3), 50 mM KCl, 4 mM MgCl2, 0.025 U/μL Taq DNA polymerase (Takara Biochemicals, Osaka, Japan), and 0.2 μM each of upstream sense primer and downstream antisense primer in a final volume of 25 μL. The sense primer (5′-[…]-3′) (SEQ ID NO: 7) and the antisense primer (5′-[…]-3′) (SEQ ID NO: 8) were used for PCR amplification of hTGF-β1 mRNA. A sense primer (5′-[…]-3′) (SEQ ID NO: 9) and an antisense primer (5′-[…]-3′) (SEQ ID NO:. 10) to human 18S ribosomal RNA were used as an internal control. PCR was performed by a Thermal Cycler (Perkin Elmer, Foster, Calif.). […] For semi-quantitative analysis of mRNA, the numbers of cycles whereby PCR products were detectable on gels were compared among various samples. cDNAs by successively 10 times dilutions (100, 10, and 1 ng) were amplified. […]

| Compound | binding to target sequence (migration of double-stranded DNA in gel shift) [1] | inhibition of expression of TGFβ1 gene (TGF-β1 messenger RNA) | increase of expression of TGFβ1 gene (TGF-β1 messenger RNA; 1×10^−6 M of PMA stimulation, human mesangium cells) |
| --- | --- | --- | --- |
| CNCCCNC(=O)CCNC(=O)c1cc(NC(=O)c2cc(NC(=O)CCNC(=O)c3cc(NC(=O)c4cc(NC(=O)c5cc(NC(=O)CCCNC(=O)c6nc(NC(=O)c7cc(NC(=O)c8nc(NC(=O)CCNC(=O)c9nc(NC(=O)c%10nc(NC(C)=O)cn%10C)cn9C)cn8C)cn7C)cn6C)cn5C)cn4C)cn3C)cn2C)cn1C [GBP1105] | decreased the migration degree | up to 50% | – |
| CC(=O)Nc1cn(C)c(C(=O)Nc2cc(C(=O)Nc3cn(C)c(C(=O)NCCC(=O)Nc4cc(C(=O)Nc5cc(C(=O)Nc6cc(C(=O)NCCCC(=O)Nc7cn(C)c(C(=O)Nc8cc(C(=O)Nc9cn(C)c(C(=O)NCCC(=O)Nc%10cc(C(=O)Nc%11cc(C(=O)Nc%12cc(C(=O)NCCC(=O)NCCCN(C)C)n(C)c%12)n(C)c%11)n(C)c%10)n9)n(C)c8)n7)n(C)c6)n(C)c5)n(C)c4)n3)n(C)c2)n1 [GBP1106] | decreased the migration degree | up to 50% | – |
| CCCCCCCCCCCCCC(=O)O[C@@H]1[C@@H](C)[C@@]2(O)[C@@H](C=C(CO)C[C@]3(O)C(=O)C(C)=C[C@@H]23)[C@@H]2C(C)(C)[C@]12OC(C)=O [PMA, 12-o-tetradecanoylpholbol-13-acetate, reference compound] | – | – | 20% |

From patent US20080255368A1, “Tgf-ß Gene Expression Inhibitor” (Nihon University, priority 2004, published 2008)
